Entries after “also recorded” stand apart in the source; their conditions may differ. Positions of bridges follow the written chain, without caps; N, C: chain ends. Residues, ends and D or L forms follow the SMILES beside them.
Tests used:
[1] = MDCK trans-well cell permeability assay; format: in vitro ADME, canine; conditions: dog, MDCK trans-well (protocol of Chen et al. 2018, canine Mdr1 knockout MDCK I), apical to basolateral, 50 µM CKP, 37C, 5% CO2, HBSS 25 mM HEPES pH 7.4, TOF/MS read-out, n = 4-6, read-out: Papp (apparent permeability)
Method: (§4) We carried out a cell permeability study using a MDCK trans-well assay, which is commonly
(§5) used at Genentech for permeability screening of compounds . This assay measures the flux of test
(§6) compound (Papp, apparent permeability) across a MDCK monolayer from the apical to the
(§7) basolateral compartment over a 16 h period.
sensitive mass spectrometry method .
(§8) 10x10-6 cm/s and compounds with Papp values of <1x10-6 cm/s are considered to be of low
Protocol of permeability assay:
(§9) Experiments were carried out as described (Chen et al. Evaluating the utility of canine Mdr1 knockout
(§10) Madin-Darby canine kidney I cells in permeability screening and efflux substrate determination, Mol
(§11) Cells were seeded in 96-well Corning Transwell plates (PET membrane, 1 µm pore size) at 75,000 cells
(§12) per well and grown in DMEM media supplemented with 10% FBS, 1% pen-strep and 1x Glutamax at
(§13) 37C, 5% CO2 for 48 h to ensure monolayer formation. Stock solutions of the three CKPs 1B3, 1D3-ENI
(§14) and 1G10-ENI were diluted in Hank's Balanced Salt solution containing 25 mM HEPES, pH 7.4 and 25
(§15) µM of the monolayer integrity marker lucifer yellow. CKPs at a concentration of 50 µM were added to
(§16) the apical (donor) chamber and the CKP the apparent permeability (Papp) was determined by quantifying
(§17) the amount of CKP in the basolateral (receiver) chamber after 16 h incubation at 37C, 5% CO2. The
(§18) samples from the basolateral chamber were supplemented with the experiment analytical internal standard
(§19) (100 nM propranolol in 50% ACN:50% water with 0.1% formic acid) and then injected in a Sciex Zeno
(§20) TOF 7600 mass spectrometer using TOF/MS mode.

MDCK monolayer = assay: MDCK trans-well cell permeability assay; format: in vitro ADME, canine; conditions: MDCK trans-well, apical to basolateral, up to 50 µM, 16 h, mass spectrometry
Method: as §4, §5, §6, §7
sensitive mass spectrometry method .
as §8
Protocol of permeability assay:
as §9, §10, §11, §12, §13, §14, §15, §16, §17, §18, §19, §20

HeLa cells = assay: Cell toxicity assay (CellTiter-Glo), HeLa; format: cell-based; conditions: 0.6-50 µM CKP, 24 h and 72 h, at least three independent experiments
Method: (§1) reduction at the highest CKP concentration of 50 µM after 72 h (see results below). The absence of cell toxicity is likely due to the inability of the CKPs to penetrate cell membranes, which was experimentally determined in response to another reviewer. Due to space limitations we have not […]
(§2) Protocol of cell toxicity assay (Figure above):
(§3) HeLa cells or C32 melanoma cells were passaged in DMEM media supplemented with 10% FBS, 1% pen-strep and 1x Glutamax using standard culture conditions (5% CO2, 90% humidity at 37°C). At approximately 95% confluence cells were trypsinized, seeded onto 96-well plates (Corning) at 10,000 cells/well and grown for 24 h. Cells were then incubated with the CKPs 3B3, 1D3-ENI and 1G10-ENI (0, 0.6, 1.9, 5.6, 16.7 and 50 µM) at 37°C for 24 h or for 72h. As a positive control we used staurosporine (STS; 1µM). Cell viability was measured using the CellTiter-Glo luminescent cell viability assay (Promega) on an Envision Multilabel plate reader. Average of at least three independent experiments ± S.D. were plotted in Prism 10. Two-way ANOVA was performed on each dataset and compared to no drug samples and no significant viability reductions were observed, except for some treatments at the […]

C32 melanoma cells = assay: Cell toxicity assay (CellTiter-Glo), C32; format: cell-based, human; conditions: for Viability reduction, C32 cells, 72 h: 50 µM CKP; for Cell viability, C32 melanoma cells: 0.6-50 µM CKP, 24 h and 72 h, at least three independent experiments
Method: as §1, §2, §3

CKP stability assay = format: physicochemical; conditions: chemical stability, PBS containing 0.15% DMSO, 0.3 mM (~1 mg/ml), 37 °C, LC-MS, HPLC UV 220 nm peak area normalized to DMSO peak, two independent experiments, preliminary
Method: The CKPs 1G10 and 1G10-ENI were incubated in PBS containing 0.15% DMSO at a concentration of 0.3 mM (~1 mg/ml) at 37 °C for 30 days. Samples from two independently performed experiments were frozen at −20 °C until further analysis. Thawed samples were diluted in H2O and injected into LC-MS (Agilent). From the HPLC UV trace (at 220 nm) the CKP peak area was normalized to the DMSO peak area from the same run. The values obtained from multiple HPLC runs were averaged and shown as dot plot.

| Structure (SMILES) | Papp A→B at 16 h, 50 µM [1] [×10⁻⁶ cm/s] | Cell permeability in the MDCK cell assay (MDCK monolayer) | Cell viability, HeLa cells (HeLa cells) | Viability reduction, C32 cells, 72 h (C32 melanoma cells) [%] | Cell viability, C32 melanoma cells (C32 melanoma cells) | Stability: intact peptide after 30 days (CKP stability assay) |
| --- | --- | --- | --- | --- | --- | --- |
| CC[C@H](C)[C@H](N)C(=O)N[C@@H](Cc1c[nH]c2ccccc12)C(=O)N1CCC[C@H]1C(=O)N[C@@H](CC(=O)O)C(=O)N1CCC[C@H]1C(=O)N[C@H](C(=O)N[C@H]1CSSC[C@@H]2NC(=O)[C@H](Cc3ccccc3)NC(=O)[C@H](Cc3c[nH]c4ccccc34)NC(=O)[C@H](C)NC(=O)CNC(=O)[C@H](CO)NC(=O)[C@@H]3CSSC[C@@H](C(=O)NCC(=O)N[C@@H](Cc4c[nH]c5ccccc45)C(=O)NCC(=O)N[C@H](C(=O)N[C@@H](CCCNC(=N)N)C(N)=O)[C@@H](C)CC)NC(=O)[C@H](CO)NC(=O)[C@H](Cc4c[nH]c5ccccc45)NC(=O)[C@H](CC(N)=O)NC(=O)[C@H](C)NC(=O)[C@H](Cc4ccc(O)cc4)NC(=O)[C@H](Cc4ccc(O)cc4)NC(=O)[C@H](CSSC[C@H](NC(=O)[C@@H]4CCCN4C(=O)[C@H](CCCCN)NC(=O)[C@H](CC(N)=O)NC1=O)C(=O)N[C@@H](CCC(=O)O)C(=O)N[C@@H]([C@@H](C)O)C(=O)N[C@@H](Cc1c[nH]cn1)C(=O)N[C@@H](CC(=O)O)C(=O)N[C@@H](CC(=O)O)C(=O)N3)NC(=O)[C@H]([C@@H](C)O)NC(=O)[C@H](CCC(N)=O)NC2=O)[C@@H](C)CC [1D3-ENI] (H-IWPDPICNKPCETHDDCSGAWFCQTCYYANWSCGWGIR-NH2; disulfide 7-23, 11-26, 17-33) | < 0.003 | no detectable cell permeability | did not appreciably affect cell viability | 13 | did not appreciably affect cell viability |  |
| CC[C@H](C)[C@H](NC(=O)CNC(=O)[C@H](Cc1c[nH]c2ccccc12)NC(=O)CNC(=O)[C@@H]1CSSC[C@@H]2NC(=O)[C@H](CC(=O)O)NC(=O)[C@H](CC(=O)O)NC(=O)[C@H](Cc3c[nH]cn3)NC(=O)[C@H]([C@@H](C)O)NC(=O)[C@H](CCC(=O)O)NC(=O)[C@@H]3CSSC[C@H](NC(=O)[C@H]([C@@H](C)O)NC(=O)[C@H](CCC(N)=O)NC(=O)[C@H](CSSC[C@H](NC(=O)[C@@H](NC(=O)[C@@H]4CCCN4C(=O)[C@H](CC(=O)O)NC(=O)[C@@H](NC(=O)[C@@H]4CCCN4C(=O)[C@@H](N)Cc4ccc(O)cc4)C(C)C)[C@@H](C)CC)C(=O)N[C@@H](CC(N)=O)C(=O)N[C@@H](CCCCN)C(=O)N4CCC[C@H]4C(=O)N3)NC(=O)[C@H](Cc3ccccc3)NC(=O)[C@H](Cc3c[nH]c4ccccc34)NC(=O)[C@H](C)NC(=O)CNC(=O)[C@H](CO)NC2=O)C(=O)N[C@@H](Cc2ccc(O)cc2)C(=O)N[C@@H](Cc2ccc(O)cc2)C(=O)N[C@@H](C)C(=O)N[C@@H](CC(N)=O)C(=O)N[C@@H](Cc2c[nH]c3ccccc23)C(=O)N[C@@H](CO)C(=O)N1)C(=O)N[C@@H](CCCNC(=N)N)C(N)=O [1G10-ENI] (H-YPVDPICNKPCETHDDCSGAWFCQTCYYANWSCGWGIR-NH2; disulfide 7-23, 11-26, 17-33) | < 0.003 | no detectable cell permeability | did not appreciably affect cell viability | 13 | did not appreciably affect cell viability | no change in peptide mass at 30 days; also recorded: highly stable |

From PMC11111691, “Cystine-knot peptide inhibitors of HTRA1 bind to a cryptic pocket within the active site region” (Nature Communications, 2024)
